The values that follow come from US3946003A, “Hydroxy substituted phenylglycylamido-3-heterocyclic thiomethyl cephalosporins” (Eli Lilly and Company, priority 1974, dated 1976).

Data set [1] relates to Aerobacter aerogenes. Nature of the data set: Antibacterial activity, MIC by Gradient-plate technique. The data set is classed as cell-based. The note with it: for MIC: Klebsiella aerogenes, read-out: Minimum Inhibitory Concentration. The text has this: (§1) The cephalosporin compounds of this invention (Formula I, R1 =H) are orally effective broad spectrum antibiotics which are useful in controlling infections caused by gram-positive and gram-negative bacteria. […] In Table I, below, the antibacterial activity of the compounds of formula I wherein R1 is hydrogen is illustrated. The bacteria are gram-negative bacteria and the activity is presented as minimum inhibitory concentrations in micrograms per milliliter (mcg./ml.). The activity was obtained by the Gradient-plate technique.

Data set [2] concerns Escherichia coli. The description is as above. The class given is cell-based. The note with it: for MIC: read-out: Minimum Inhibitory Concentration.
Excerpt: as §1

Data set [3] deals with Klebsiella pneumoniae. Described as above. The data set is classed as cell-based. To be noted: for MIC: read-out: Minimum Inhibitory Concentration.
Excerpt: as §1

Data set [4] deals with Pseudomonas aeruginosa. The description is as above. The data set is classed as cell-based. The note with it: for MIC: read-out: Minimum Inhibitory Concentration.
Excerpt: as §1

The subject of data set [5] is Salmonella heidelberg. The description is as above. The class given is cell-based. To be noted: for MIC: Salmonella enterica, read-out: Minimum Inhibitory Concentration.
Excerpt: as §1

Data set [6] deals with Serratia marcescens. The description is as above. The class given is cell-based. To be noted: for MIC: read-out: Minimum Inhibitory Concentration.
Excerpt: as §1

Data set [7] concerns Shigella sp. The data set is described as above. The data set is classed as cell-based. The note with it: for MIC: read-out: Minimum Inhibitory Concentration.
Excerpt: as §1

Data set [8] deals with Diplococcus pneumoniae Park I. Description: Oral therapy of experimental infections in mice. The note with it: Streptococcus pneumoniae, oral (gavage) at 1 and 5 hours post infection, read-out: Effective Dose (ED50). The data set is classed as in vivo. The procedure: (§2) In Table II, the respective effective doses (ED50) for these antibiotics is presented. The data were obtained in mice infected with the indicated microorganism following oral administration of the antibiotics at 1 and 5 hours post infection.
(§3) ^1 mg./kg. × 2 oral doses (gavage) at 1 and 5 hours post

Data set [9] relates to Escherichia coli EC14. Nature of the data set: Oral therapy of experimental infections in mice. The class given is in vivo. To be noted: oral (gavage) at 1 and 5 hours post infection, read-out: Effective Dose (ED50). The procedure:
as §2, §3

Data set [10] relates to Proteus mirabilis PR6. Description: Oral therapy of experimental infections in mice. The class given is in vivo. To be noted: oral (gavage) at 1 and 5 hours post infection, read-out: Effective Dose (ED50). The procedure: as §2, §3
For data set [11], the system named is Streptococcus pyogenes C203. Nature of the data set: Oral therapy of experimental infections in mice. The data set is classed as in vivo. The note with it: for ED50: Streptococcus pyogenes C203, mice, oral (gavage) at 1 and 5 hours post infection, read-out: Effective Dose (ED50). Here is the method: as §2, §3
A short description of data set [12]: Duration of antibiotic blood levels in mice after single oral dose (agar disc-plate assay, Sarcina lutea). The class given is in vivo. The note with it: mouse, single oral dose 20 mg./kg.; for concentration at 10 min: 10 min post administration; for concentration at 20 min: 20 min post administration; for concentration at 0.5 h: 30 min post administration; for concentration at 1 h: 60 min post administration; for concentration at 1.5 h: 90 min post administration; for concentration at 2 h: 120 min post administration; for Cmax: read-out: peak blood level. Here is the method: The determinations were carried out in groups of 3 or 4 mice as indicated in the table and the results averaged. At the indicated time intervals post administration, blood samples were withdrawn at the orbital sinus from each mouse in the test group and assayed for the concentration of antibiotic. […]

A short description of data set [13]: physchem. The note with it: 6% dmf.

≈ marks a conversion by molar mass, not a printed value.

The term ED50 denotes the dose at which the effect has come halfway, by size or by number of responders. For the compound `Cn1nnnc1SCC1=C(C(=O)O)N2C(=O)[C@@H](NC(=O)[C@H](N)c3ccc(O)cc3)[C@H]2SC1` [compound 1, 7β-(4-hydroxyphenylglycylamido)-3-(1-methyl-1H-tetrazole-5-ylthiomethyl)-3-cephem-4-carboxylic acid], the MIC is 0.7 µg/mL (≈ 1.47 µM) in [1]; 1 µg/mL (≈ 2.09 µM) in data set [2]; 1 µg/mL (≈ 2.09 µM) in data set [3]; above 200 µg/mL in data set [4]; 0.6 µg/mL (≈ 1.26 µM) in data set [5]; 12.5 µg/mL (≈ 26.2 µM) in data set [6]. Besides, in [7], the MIC is 0.8 µg/mL (≈ 1.68 µM). The ED50 in data set [8] is below 1.1 mg/kg; in [9], 3.7 mg/kg; in data set [10] it was below 4.5 mg/kg; in data set [11], 0.18 mg/kg. Moreover, the concentration at 10 min in data set [12] stood at 2560 ng/mL. For the same compound, the concentration at 20 min in [12] came out at 5780 ng/mL. The compound also had a concentration at 0.5 h in data set [12] of 8550 ng/mL. Also, the concentration at 1 h in data set [12] amounted to 8880 ng/mL. Further, the concentration at 1.5 h in [12] came out at 6940 ng/mL. Further, the concentration at 2 h in data set [12] stood at 5360 ng/mL. In addition, the Cmax in data set [12] was around 8900 ng/mL.
As a reminder, the pKa is the negative logarithm of the acid dissociation constant. Lower therefore signals a group that gives up its proton readily. On to `Cc1nnc(SCC2=C(C(=O)O)N3C(=O)[C@@H](NC(=O)[C@H](N)c4ccc(O)cc4)[C@H]3SC2)s1` [compound 3, 7β-(D-4-hydroxyphenylglycylamido)-3-(5-methyl-1,3,4-thiadiazol-2-ylthiomethyl)-3-cephem-4-carboxylic acid], for which the MIC in [1] was 1 µg/mL (≈ 2.03 µM); in data set [2] it was 2.5 µg/mL (≈ 5.06 µM); in [3], 1 µg/mL (≈ 2.03 µM); in data set [4] it was above 200 µg/mL; in [5], 1 µg/mL (≈ 2.03 µM); in [6] it was 47.5 µg/mL (≈ 96.2 µM). Moreover, the MIC in [7] was 2 µg/mL (≈ 4.05 µM). Besides, the median effective dose (ED50) in data set [8] is below 1.1 mg/kg; in data set [9] it was 2.1 mg/kg; in data set [10], below 4.5 mg/kg; in data set [11], 0.08 mg/kg. In [11] (S. pyogenes infections in mice, 1.15/0.08), the “ED50 times lower than that exhibited by compound No. 4” value is “approximately 14 times”. Besides, the “ED50 times lower than that exhibited by compound No. 2” value in data set [11] (S. pyogenes infections in mice, 4.05/0.08) is “approximately 50 times”. Besides, the concentration at 10 min in [12] stood at 10600 ng/mL. The compound further had a concentration at 20 min in [12] of 13200 ng/mL. The same compound displayed a concentration at 0.5 h in data set [12] of 13900 ng/mL. In data set [12], this compound showed a concentration at 1 h of 14300 ng/mL. Also, the concentration at 1.5 h in [12] came out at 9800 ng/mL. The concentration at 2 h in data set [12] amounted to 5200 ng/mL. In addition, the Cmax in data set [12] is around 14300 ng/mL. Also, the figures for the pKa in data set [13] (pKa (first)), in [13] (pKa (second)) and in data set [13] (pKa (third)) were 4.4, 7.6 and 12.2, respectively.
“7β-(D-4-hydroxyphenylglycylamido)-3-(1-methyl-1H-tetrazole-5-ylthiomethyl)-3-cephem-4-carboxylic acid”: the “Minimum Inhibitory Concentration” value in data set [1] was 0.9 µg/mL; in data set [2] it was 0.9 µg/mL; in data set [3], 0.6 µg/mL; in [4], 120 µg/mL; in data set [5], 0.8 µg/mL; in data set [6], 5.0 µg/mL. The “Minimum Inhibitory Concentration” value in data set [7] was determined as 0.8 µg/mL.
As to `Cn1nnnc1SCC1=C(C(=O)O)N2C(=O)C(NC(=O)C(N)c3ccccc3)C2SC1` (stereo not drawn) [compound 2, reference compound], the ED50 in data set [9] was 8.4 mg/kg. Moreover, in data set [11], the ED50 came to 4.05 mg/kg. In [12], this compound had a concentration at 10 min of 260 ng/mL, a concentration at 20 min of 750 ng/mL, a concentration at 0.5 h of 1170 ng/mL and a concentration at 1 h of 890 ng/mL. In data set [12], the concentration at 1.5 h is 1090 ng/mL and the Cmax was around 1200 ng/mL.
As for `Cc1nnc(SCC2=C(C(=O)O)N3C(=O)C(NC(=O)C(N)c4ccccc4)C3SC2)s1` (stereo not drawn) [compound 4, reference compound], in data set [8], the median effective dose (ED50) was 5.2 mg/kg. Moreover, the ED50 in [9] turned out to be 6.9 mg/kg. The ED50 in data set [10] was found to be 20.7 mg/kg. Besides, the ED50 in data set [11] is 1.15 mg/kg. In [12], this compound gave a concentration at 10 min of 1980 ng/mL, a concentration at 20 min of 3380 ng/mL, a concentration at 0.5 h of 3990 ng/mL and a concentration at 1 h of 2340 ng/mL. In [12], the concentration at 1.5 h came out at 1610 ng/mL and the Cmax was around 4000 ng/mL.
